{"source": "the NIST ThermoML archive (doi:10.1016/j.fluid.2008.09.010)", "note": "± gives the expanded uncertainty stated by the source.", "data": [{"conditions": "Liquid; Ebulliometric method (Recirculating still)", "units": {"Normal boiling temperature": "°C"}, "values": [{"smiles": "CC(=O)O", "note": "[acetic acid]", "Normal boiling temperature": "118 ± 0.2"}, {"smiles": "C[S+](C)[O-]", "note": "[dimethyl sulfoxide]", "Normal boiling temperature": "188.77 ± 0.2"}, {"smiles": "CN(C)C=O", "note": "[dimethylformamide]", "Normal boiling temperature": "152.6 ± 0.2"}]}]}
